We go through 38 molecules from patent US6150385A, “1,3,4-thiadiazoles useful for the treatment of CMV infections” (Pharmacia & Upjohn Company, priority 1999, dated 2000).

The target of the experiment is T1, HCMV polymerase (Human cytomegalovirus, UniProt P08546).
T1 construct: made in house; host or cells: SF-9 insect cells infected with recombinant baculovirus
T1 sequence (P08546 whole entry): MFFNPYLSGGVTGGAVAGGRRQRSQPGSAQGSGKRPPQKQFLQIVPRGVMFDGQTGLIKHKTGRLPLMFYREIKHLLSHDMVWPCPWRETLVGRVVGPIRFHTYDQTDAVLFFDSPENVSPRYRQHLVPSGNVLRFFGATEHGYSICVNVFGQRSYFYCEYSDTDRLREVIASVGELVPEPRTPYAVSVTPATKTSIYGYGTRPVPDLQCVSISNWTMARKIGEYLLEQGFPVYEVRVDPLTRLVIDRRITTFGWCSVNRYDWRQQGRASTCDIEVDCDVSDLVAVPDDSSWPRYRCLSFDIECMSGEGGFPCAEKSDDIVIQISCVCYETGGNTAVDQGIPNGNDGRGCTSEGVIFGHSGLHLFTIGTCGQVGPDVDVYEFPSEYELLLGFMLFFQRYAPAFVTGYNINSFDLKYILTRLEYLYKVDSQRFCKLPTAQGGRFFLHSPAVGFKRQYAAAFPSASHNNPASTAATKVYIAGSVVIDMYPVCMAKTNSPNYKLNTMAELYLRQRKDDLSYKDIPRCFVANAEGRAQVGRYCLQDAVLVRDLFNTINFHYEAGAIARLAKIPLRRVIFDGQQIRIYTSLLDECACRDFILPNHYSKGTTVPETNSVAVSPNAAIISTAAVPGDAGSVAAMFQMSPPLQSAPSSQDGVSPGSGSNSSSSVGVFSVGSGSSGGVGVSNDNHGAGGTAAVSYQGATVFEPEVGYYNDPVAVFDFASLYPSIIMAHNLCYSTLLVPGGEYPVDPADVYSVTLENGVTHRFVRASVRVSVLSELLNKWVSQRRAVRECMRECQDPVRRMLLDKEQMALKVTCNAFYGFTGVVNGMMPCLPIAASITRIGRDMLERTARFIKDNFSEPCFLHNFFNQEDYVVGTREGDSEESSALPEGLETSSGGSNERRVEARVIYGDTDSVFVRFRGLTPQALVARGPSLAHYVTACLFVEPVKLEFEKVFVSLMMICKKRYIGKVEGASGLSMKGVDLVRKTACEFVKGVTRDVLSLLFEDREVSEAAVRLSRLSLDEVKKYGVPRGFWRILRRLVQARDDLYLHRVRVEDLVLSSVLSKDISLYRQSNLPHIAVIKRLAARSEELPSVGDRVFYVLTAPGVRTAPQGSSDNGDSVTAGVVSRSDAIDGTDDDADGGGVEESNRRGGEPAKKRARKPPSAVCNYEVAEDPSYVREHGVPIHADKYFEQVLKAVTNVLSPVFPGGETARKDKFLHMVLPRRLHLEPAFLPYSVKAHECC
Briefly: HCMV polymerase assay (scintillation proximity assay). The format is biochemical. The settings on record: percentage of inhibition at 25 μM concentration in CMV polymerase assay. Summed up: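 Baculovirus/SF-9-expressed HCMV polymerase in 5.4 mM HEPES pH 7.5, 11.7 mM KCl, 4.5 mM MgCl2, 0.36 mg/ml BSA, 90 nM 3H-dTTP, with or without 2 mM CHAPS. Started with 6 nM biotinylated poly(dA)-oligo(dT), 30 min at 25 or 37 °C, EDTA-stopped, read by streptavidin-SPA counting; % inhibition at 25 μM.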
On the technique in general: Scintillation proximity formats need no separation of bound from free tracer.
Turning to `CCCCCCCC/C=C/CCCCCCCC(=O)Nc1nnc(NCCc2c[nH]cn2)s1` [compound 391, (E)-N-(5-{[2-(1H-imidazol-4-yl)ethyl]amino}-1,3,4-thiadiazol-2-yl)-9-octadecenamide], the inhibition – broadly, the relative decrease from the control value, in per cent – at 25 µM was determined as 26.2%.

Molecule `O=C(Nc1nnc(NCCCCc2ccccc2)s1)c1ccc(Cl)c(Cl)c1` [compound 168, 3,4-dichloro-N-{5-[(4-phenylbutyl)amino]-1,3,4-thiadiazol-2-yl}benzamide] had an inhibition at 25 µM of 50.8%.

In the case of `O=C(Nc1nnc(NC2CCN(Cc3ccccc3)CC2)s1)c1ccc(S(=O)(=O)F)cc1` [compound 460, 4-[({5-[(1-benzyl-4-piperidinyl)amino]-1,3,4-thiadiazol-2-yl}amino)carbonyl]benzenesulfonyl fluoride], the “% Inhib” value worked out at 20.7%.

On to `O=C(Nc1nnc(NCC(c2ccccc2)c2ccccc2)s1)c1ccc(Br)cc1` [compound 385, 4-bromo-N-{5-[(2,2-diphenylethyl)amino]-1,3,4-thiadiazol-2-yl}benzamide], for which testing at 25 µM gave an inhibition of 27.2%.

`O=C(Nc1nnc(NCC(c2ccccc2)c2ccccc2)s1)c1ccc2c(c1)C(=O)OC2=O` [compound 17, N-{5-[(2,2-diphenylethyl)amino]-1,3,4-thiadiazol-2-yl}-1,3-dioxo-1,3-dihydro-2-benzofuran-5-carboxamide] had an inhibition at 25 µM of 98.6%.

Molecule `N#Cc1ccc(C(=O)Nc2nnc(NCCCN3CCCC3=O)s2)cc1` [compound 158, 4-cyano-N-(5-{[3-(2-oxo-1-pyrrolidinyl)propyl]amino}-1,3,4-thiadiazol-2-yl)benzamide] came in with an inhibition at 25 µM of 52.9%.

In turn, `CCCCCCCC/C=C/CCCCCCCC(=O)Nc1nnc(NCC2CCCO2)s1` (centres unmarked) [compound 246, (E)-N-{5-[(tetrahydro-2-furanylmethyl)amino]-1,3,4-thiadiazol-2-yl}-9-octadecenamide] displayed an inhibition at 25 µM of 40.9%.

The molecule `CCCCCCCC/C=C/CCCCCCCC(=O)Nc1nnc(NC2CCCc3ccccc32)s1` (centres unmarked) [compound 107, (E)-N-[5-(1,2,3,4-tetrahydro-1-naphthalenylamino)-1,3,4-thiadiazol-2-yl]-9-octadecenamide] displayed an inhibition at 25 µM of 63.8%.

`N#Cc1ccc(C(=O)Nc2nnc(NCCc3ccccc3)s2)cc1` [compound 345, 4-cyano-N-[5-(phenethylamino)-1,3,4-thiadiazol-2-yl]benzamide] had an inhibition at 25 µM of 30.9%.

Consider `CCOC(=O)N1CCC(Nc2nnc(NC(=O)c3c(Cl)cccc3Cl)s2)CC1` [compound 132, ethyl 4-({5-[(2,6-dichlorobenzoyl)amino]-1,3,4-thiadiazol-2-yl}amino)tetrahydro-1(2H)-pyridinecarboxylate], for which the inhibition at 25 µM was found to be 57%.

`O=C(Nc1nnc(NCCc2c[nH]c3ccccc23)s1)c1ccc(S(=O)(=O)F)cc1` [compound 90, 4-{[(5-{[2-(1H-indol-3-yl)ethyl]amino}-1,3,4-thiadiazol-2-yl)amino]carbonyl}benzenesulfonyl fluoride]: the “% Inhib” value worked out at 66.1%.

Take `CCOc1ccc2ccccc2c1C(=O)Nc1nnc(NCC2CC2)s1` [compound 177, N-{5-[(cyclopropylmethyl)amino]-1,3,4-thiadiazol-2-yl}-2-ethoxy-1-naphthamide]: 25 µM produced 49% inhibition.

On to `O=C(Nc1nnc(NCCc2ccccc2)s1)c1ccc(Cl)cc1Cl` [compound 308, 2,4-dichloro-N-[5-(phenethylamino)-1,3,4-thiadiazol-2-yl]benzamide], for which the inhibition at 25 µM was 34.2%.

For the molecule `CC(=O)NCCNc1nnc(NC(=O)c2c(C(C)C)cc(C(C)C)cc2C(C)C)s1` [compound 332, N-(5-{[2-(acetylamino)ethyl]amino}-1,3,4-thiadiazol-2-yl)-2,4,6-triisopropylbenzamide], the inhibition at 25 µM stood at 32%.

In the case of `O=C(Nc1nnc(NCCCNC2CCCCC2)s1)c1ccc2c(c1)C(=O)OC2=O` [compound 2, N-(5-{[3-(cyclohexylamino)propyl]amino}-1,3,4-thiadiazol-2-yl)-1,3-dioxo-1,3-dihydro-2-benzofuran-5-carboxamide], the inhibition at 25 µM was 100%.

The molecule `COc1ccccc1C(=O)Nc1nnc(NCCNc2ccccc2)s1` [compound 394, N-{5-[(2-anilinoethyl)amino]-1,3,4-thiadiazol-2-yl}-2-methoxybenzamide] yielded an inhibition at 25 µM of 26%.

`CCOc1ccc2ccccc2c1C(=O)Nc1nnc(NCc2ccc(Cl)c(Cl)c2)s1` [compound 207, N-{5-[(3,4-dichlorobenzyl)amino]-1,3,4-thiadiazol-2-yl}-2-ethoxy-1-naphthamide] had an inhibition at 25 µM of 44.7%.

Consider `NS(=O)(=O)c1ccc(CNc2nnc(NC(=O)c3ccc(C(F)(F)F)cc3)s2)cc1` [compound 398, N-(5-{[4-(aminosulfonyl)benzyl]amino}-1,3,4-thiadiazol-2-yl)-4-(trifluoromethyl)benzamide], for which the inhibition at 25 µM was found to be 25.9%.

Turning to `O=C(Nc1nnc(NC2CCCCCC2)s1)c1ccc2c(c1)C(=O)OC2=O` [compound 29, N-[5-(cycloheptylamino)-1,3,4-thiadiazol-2-yl]-1,3-dioxo-1,3-dihydro-2-benzofuran-5-carboxamide], the inhibition at 25 µM was 92.4%.

Molecule `O=C(Nc1nnc(NC2CCN(Cc3ccccc3)CC2)s1)c1c(Cl)cccc1Cl` [compound 151, N-{5-[(1-benzyl-4-piperidinyl)amino]-1,3,4-thiadiazol-2-yl}-2,6-dichlorobenzamide] showed an inhibition at 25 µM of 54%.

Molecule `CC1(C)C2CC[C@@H](CNc3nnc(NC(=O)c4ccc5c(c4)C(=O)OC5=O)s3)C1C2` (stereo partly drawn) [compound 25, N-[5-({[(2R)-6,6-dimethylbicyclo[3.1.1]hept-2-yl]methyl}amino)-1,3,4-thiadiazol-2-yl]-1,3-dioxo-1,3-dihydro-2-benzofuran-5-carboxamide] yielded an inhibition at 25 µM of 93.9%.

With `O=C(Nc1nnc(NCc2ccc(F)cc2)s1)c1cc2ccccc2s1` [compound 361, N-{5-[(4-fluorobenzyl)amino]-1,3,4-thiadiazol-2-yl}-1-benzothiophene-2-carboxamide], the inhibition at 25 µM stood at 28.8%.

Turning to `CCOc1ccc2ccccc2c1C(=O)Nc1nnc(NC2CCc3ccccc32)s1` (centres unmarked) [compound 95, N-[5-(2,3-dihydro-1H-inden-1-ylamino)-1,3,4-thiadiazol-2-yl]-2-ethoxy-1-naphthamide], the inhibition at 25 µM turned out to be 65.9%.

The molecule `O=C(Nc1nnc(NCCc2ccccc2)s1)c1ccc([N+](=O)[O-])o1` [compound 282, 5-nitro-N-[5-(phenethylamino)-1,3,4-thiadiazol-2-yl]-2-furamide] displayed an inhibition at 25 µM of 37.1%.

As for `O=C(Nc1nnc(NC2CCCc3ccccc32)s1)c1cc(F)cc(F)c1` (centres unmarked) [compound 468, 3,5-difluoro-N-[5-(1,2,3,4-tetrahydro-1-naphthalenylamino)-1,3,4-thiadiazol-2-yl]benzamide], testing at 25 µM gave an inhibition of 20.1%.

Consider `O=C(Nc1nnc(NCc2ccc(F)cc2)s1)c1ccc(F)cc1F` [compound 423, 2,4-difluoro-N-{5-[(4-fluorobenzyl)amino]-1,3,4-thiadiazol-2-yl}benzamide], for which the inhibition at 25 µM was 23.8%.

On to `O=C(CCCCCl)Nc1nnc(NCCc2ccccc2)s1` [compound 354, 5-chloro-N-[5-(phenethylamino)-1,3,4-thiadiazol-2-yl]pentanamide], for which the inhibition at 25 µM came out at 29.9%.

`Cc1ccc(C(=O)Nc2nnc(NCCNc3ccccc3)s2)cc1` [compound 393, N-{5-[(2-anilinoethyl)amino]-1,3,4-thiadiazol-2-yl}-4-methylbenzamide] gave an inhibition at 25 µM of 26.1%.

In turn, `O=C(Nc1nnc(NCc2cccc3ccccc23)s1)c1ccc(I)cc1` [compound 402, 4-iodo-N-{5-[(1-naphthylmethyl)amino]-1,3,4-thiadiazol-2-yl}benzamide] showed an inhibition at 25 µM of 25.5%.

As to `NS(=O)(=O)c1ccc(CNc2nnc(NC(=O)c3c(Cl)cccc3Cl)s2)cc1` [compound 30, N-(5-{[4-(aminosulfonyl)benzyl]amino}-1,3,4-thiadiazol-2-yl)-2,6-dichlorobenzamide], the inhibition at 25 µM came to 91.8%.

The molecule `CCCCCCCC/C=C/CCCCCCCC(=O)Nc1nnc(NC2CCCCCC2)s1` [compound 31, (E)-N-[5-(cycloheptylamino)-1,3,4-thiadiazol-2-yl]-9-octadecenamide] had an inhibition at 25 µM of 91.8%.

For the molecule `NS(=O)(=O)c1ccc(CCNc2nnc(NC(=O)c3cc4ccccc4s3)s2)cc1` [compound 267, N-(5-{[4-(aminosulfonyl)phenethyl]amino}-1,3,4-thiadiazol-2-yl)-1-benzothiophene-2-carboxamide], the inhibition at 25 µM amounted to 38.7%.

The molecule `CC(C)(C)OC(=O)CCNc1nnc(NC(=O)c2c(Cl)cccc2Cl)s1` [compound 338, tert-butyl 3-({5-[(2,6-dichlorobenzoyl)amino]-1,3,4-thiadiazol-2-yl}amino)propanoate] gave an inhibition at 25 µM of 31.6%.

In the case of `CCCCCCCC/C=C/CCCCCCCC(=O)Nc1nnc(NCC2CCCCC2)s1` [compound 285, (E)-N-{5-[(cyclohexylmethyl)amino]-1,3,4-thiadiazol-2-yl}-9-octadecenamide], the inhibition at 25 µM was determined as 36.7%.

`O=C(Nc1nnc(NCCc2c[nH]c3ccccc23)s1)c1ccc(I)cc1` [compound 252, N-(5-{[2-(1H-indol-3-yl)ethyl]amino}-1,3,4-thiadiazol-2-yl)-4-iodobenzamide] showed an inhibition at 25 µM of 40.2%.

`O=C(Nc1nnc(NCC2CCCCC2)s1)c1ccc([N+](=O)[O-])o1` [compound 380, N-{5-[(cyclohexylmethyl)amino]-1,3,4-thiadiazol-2-yl}-5-nitro-2-furamide] displayed an inhibition at 25 µM of 27.5%.

Turning to `CCCCCCCCCCCNc1nnc(NC(=O)c2ccc(I)cc2)s1` [compound 147, 4-iodo-N-[5-(undecylamino)-1,3,4-thiadiazol-2-yl]benzamide], the inhibition at 25 µM amounted to 54.7%.

Molecule `Cc1ccc(C(=O)Nc2nnc(NC3CCCCCC3)s2)cc1` [compound 323, N-[5-(cycloheptylamino)-1,3,4-thiadiazol-2-yl]-4-methylbenzamide] yielded an inhibition at 25 µM of 33%.
